These results are taken from patent US9453051B2, “Cyclosporin derivatives” (priority 2011, dated 2016).

The IC50 is the midpoint of a concentration-inhibition curve. A word on the Papp A→B: it is how fast a substance crosses the layer from the apical side. Read a low Papp A→B as poor permeation. As a reminder, the Papp B→A is how fast a substance crosses the layer from the basolateral side.

Each structure is given as a SMILES string. Where only a bound is given, the exact number is not on record here.

For one series, the target named is calcineurin (Homo sapiens, UniProt P62937+P63098+Q08209). Description: Inhibition of the phosphatase activity of calcineurin (scintillation-proximity-assay, in presence of Cyp18).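 Further: calcineurin dephosphorylation of a ³³P-labelled RII phosphopeptide, captured on streptavidin-coated wells and read by scintillation counting, with uninhibited enzyme activity taken as 100%.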
Series [1] is described as follows: Determination of cell permeability in PAMPA cell membranes (Parallel Artificial Membrane Permeability Assay). Type of series: in vitro ADME. Conditions: 500 μM, Hepes buffer pH 7.4, 16 hours, room temperature. How it is done: After an incubation of 16 hours at room temperature in a liquid chamber the optical density of the solution after filtration has been measured in a range of 250 to 500 nm in steps of 10 nm each. The percentage “Flux” has been calculated from the integral of the graph between 250 and 500 nm and standardized on the optical density determined in the parallel reaction without artificial membrane.
(In PAMPA a lipid-coated filter parts donor from acceptor wells.)

In another series the test system is NFAT. In words: Cellular NFAT-reporter-gene assay (GloResponse NFAT-RE-luc2P HEK293). It is filed as cell-based. Conditions: Homo sapiens, HEK293, 16 h, read-out: NFAT-reporter-gene assay IC50. An excerpt:
An antigen specific stimulation of the T-cell receptor causes the activation of transcription factors such as e.g. NFAT (nuclear factor of activated T cells). NFAT-activation is essential for the expression of interleukine-2 and therefore, for the proliferation of T-cells as part of the immune response. A stable NFAT-reporter-gene cell line enables the analysis of modulators of the NFAT-pathways and thus, the evaluation of the immunosuppressive effects of compounds.
The stably transfected reporter-gene cell line GloResponse NFAT-RE-luc2P HEK293 (promega Corp. USA) was cultivated in DMEM (10% FCS; 2 mM Glutamin; 200 μg/ml Hygromycin) and seeded on 96-well plates (200.000 cells/well). The compounds to be tested were either added to the cells in a 2-point-determination (5 μM and 10 μM) or an ICH-determination (concentration series 4.1 nM-1 μM). […] Immediately thereafter the cells were stimulated with 5 nM PMA and 2 μM ionomycin and incubated over 16 h (37° C.; cell incubator). This double stimulation simulates a T-cell receptor stimulation and causes a NFAT activation with subsequently expression of the luciferase-reporter-gene. The amount of luciferase was quantitatively determined after 16 h by measurement of the bioluminescence by Bright-Glo Luciferase-Assay-System (Promega Corp., USA). The averaged luciferase values of the vehicle treated (1% DMSO) and with PMA/ionomycin stimulated cells were used as positive control and reference value.

A short description of a further series: in vitro. Conditions: human, Caco-2, pH 7.4.
In series [2] the target is recombinant human wild type Cyp18 (Cyp18 wt) (Homo sapiens, UniProt P62937). In words: biochemical.
Sequence of recombinant human wild type Cyp18 (Cyp18 wt) (P62937 whole entry): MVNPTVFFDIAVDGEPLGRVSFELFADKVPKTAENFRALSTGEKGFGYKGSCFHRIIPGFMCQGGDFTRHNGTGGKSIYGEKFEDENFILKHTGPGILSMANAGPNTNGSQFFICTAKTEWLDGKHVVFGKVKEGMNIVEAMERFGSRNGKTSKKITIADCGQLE

Experimental for calcineurin: The measurement was carried out by incubation of 10 μMol of the biotinylated phosphopeptide [sequence]pSer-Val-Ala-Ala-Glu (MW=2192.0) (RH-peptide) marked with ^33P in a sample buffer (40 mM Tris-HCl, pH 7.5, 100 mM NaCl, 6 mM MgCl2, 0.5 mM dithiothreitol, 1 mM. CaCl2, 0.1 mg/ml bovine serum albumin) in presence of 50 nM calmodulin and 1.32 nM calcineurin at 30° C. for 20 min in a 96 well micro titer plate (Costar, Bodenheim, Germany). The total volume of the assay/well was 100 μl. After this reaction time a 90 μl aliquot of the reaction mixture was transferred into a scintillation cavity coated with streptavidin and incubated for 20 min at 22° C. After a washing step the RII phosphopeptide-associated ^33P radioactivity was measured in a MicroBeta Top Counter (Wallac) and the enzyme activity was indicated as average value of three measurements±S.D. The uninhibited dephosphorylation activity has been set on 100%.

`CC[C@@H]1NC(=O)[C@H]([C@H](O)[C@H](C)Cc2nc3cc(-c4nnn[nH]4)ccc3[nH]2)N(C)C(=O)[C@H](C(C)C)N(C)C(=O)[C@H](CC(C)C)N(C)C(=O)[C@H](CC(C)C)N(C)C(=O)[C@@H](C)NC(=O)[C@H](C)NC(=O)[C@H](CC(C)C)N(C)C(=O)[C@H](C(C)C)NC(=O)[C@H](CC(C)C)N(C)C(=O)CN(C)C1=O` [Compound 33]: the half-maximal inhibitory concentration (IC50) on calcineurin was greater than 10 µM. In addition, the “Cell permeability in PAMPA-cell membranes” value (shortened to “Cell permeability”) in series [1] worked out at 0.25 % flux. In addition, in the series with NFAT, the IC50 was greater than 10 µM. Further, in the series “in vitro”, the Papp A→B at 2 h, 5 μM was less than 0.15 ×10⁻⁶ cm/s and the Papp B→A at 2 h, 5 μM was less than 0.15 ×10⁻⁶ cm/s.

In the case of `CC[C@@H]1NC(=O)[C@H]([C@H](O)[C@H](C)Cc2nc3cccc(C(=O)O)c3[nH]2)N(C)C(=O)[C@H](C(C)C)N(C)C(=O)[C@H](CC(C)C)N(C)C(=O)[C@H](CC(C)C)N(C)C(=O)[C@@H](C)NC(=O)[C@H](C)NC(=O)[C@H](CC(C)C)N(C)C(=O)[C@H](C(C)C)NC(=O)[C@H](CC(C)C)N(C)C(=O)CN(C)C1=O` [Compound 28], the “Cell permeability” value in series [1] is 3.3 % flux. Moreover, the IC50 in the series with NFAT is greater than 10 µM. In the series “in vitro”, this molecule had a Papp A→B at 2 h, 5 μM of less than 0.4 ×10⁻⁶ cm/s and an apparent permeability from basolateral to apical (Papp B→A) at 2 h, 5 μM of 0.3 ×10⁻⁶ cm/s.

In the case of `CC[C@@H]1NC(=O)[C@H]([C@H](O)[C@H](C)Cc2nc3cc(S(=O)(=O)O)ccc3[nH]2)N(C)C(=O)[C@H](C(C)C)N(C)C(=O)[C@H](CC(C)C)N(C)C(=O)[C@H](CC(C)C)N(C)C(=O)[C@@H](C)NC(=O)[C@H](C)NC(=O)[C@H](CC(C)C)N(C)C(=O)[C@H](C(C)C)NC(=O)[C@H](CC(C)C)N(C)C(=O)CN(C)C1=O` [Compound 22], the IC50 was greater than 10 µM on calcineurin, 0.0087 µM in series [2] and greater than 10 µM in the series on NFAT. Besides, the “Cell permeability” value in series [1] was 4.1 % flux. The molecule also had a Papp A→B at 2 h, 5 μM in the series “in vitro” of 0.9 ×10⁻⁶ cm/s.

`CC[C@@H]1NC(=O)[C@H]([C@H](O)[C@H](C)Cc2nc3cc(C(=O)O)ccc3n2C)N(C)C(=O)[C@H](C(C)C)N(C)C(=O)[C@H](CC(C)C)N(C)C(=O)[C@H](CC(C)C)N(C)C(=O)[C@@H](C)NC(=O)[C@H](C)NC(=O)[C@H](CC(C)C)N(C)C(=O)[C@H](C(C)C)NC(=O)[C@H](CC(C)C)N(C)C(=O)CN(C)C1=O` [Compound 36]: the IC50 on calcineurin and in the series with NFAT was greater than 10 µM throughout. Further, the “Cell permeability” value in series [1] is 0.7 % flux. In the series “in vitro”, this molecule came in with a Papp A→B at 2 h, 5 μM of 0.3 ×10⁻⁶ cm/s.

Turning to `CC[C@@H]1NC(=O)[C@H]([C@H](O)[C@H](C)Cc2nc3cc(C(N)=O)ccc3[nH]2)N(C)C(=O)[C@H](C(C)C)N(C)C(=O)[C@H](CC(C)C)N(C)C(=O)[C@H](CC(C)C)N(C)C(=O)[C@@H](C)NC(=O)[C@H](C)NC(=O)[C@H](CC(C)C)N(C)C(=O)[C@H](C(C)C)NC(=O)[C@H](CC(C)C)N(C)C(=O)CN(C)C1=O` [Compound 23], the IC50 was greater than 10 µM on calcineurin, 0.0038 µM in series [2] and greater than 10 µM in the series with NFAT. In addition, in “in vitro”, the Papp A→B at 2 h, 5 μM came to 0.3 ×10⁻⁶ cm/s. The Papp B→A at 2 h, 5 μM in the series “in vitro” is 0.6 ×10⁻⁶ cm/s.

Turning to `CC[C@@H]1NC(=O)[C@H]([C@H](O)[C@H](C)Cc2nc3cc(NS(=O)(=O)C(F)(F)F)ccc3[nH]2)N(C)C(=O)[C@H](C(C)C)N(C)C(=O)[C@H](CC(C)C)N(C)C(=O)[C@H](CC(C)C)N(C)C(=O)[C@@H](C)NC(=O)[C@H](C)NC(=O)[C@H](CC(C)C)N(C)C(=O)[C@H](C(C)C)NC(=O)[C@H](CC(C)C)N(C)C(=O)CN(C)C1=O` [Compound 47], the values for the IC50 (on calcineurin; in series [2]; in the series with NFAT) were greater than 10 µM, 0.0132 µM and greater than 10 µM, respectively.

`CC[C@@H]1NC(=O)[C@H]([C@H](O)[C@H](C)Cc2nc3cc(C(=O)OCCN4CCOCC4)ccc3[nH]2)N(C)C(=O)[C@H](C(C)C)N(C)C(=O)[C@H](CC(C)C)N(C)C(=O)[C@H](CC(C)C)N(C)C(=O)[C@@H](C)NC(=O)[C@H](C)NC(=O)[C@H](CC(C)C)N(C)C(=O)[C@H](C(C)C)NC(=O)[C@H](CC(C)C)N(C)C(=O)CN(C)C1=O` [Compound 27]: the IC50 at calcineurin came to 6.4 µM; in series [2], 0.0059 µM; in the series with NFAT, 7.4 µM.

As for `CC[C@@H]1NC(=O)[C@H]([C@H](O)[C@H](C)Cc2nc3cc(C(=O)OC)c(C(=O)OC)cc3[nH]2)N(C)C(=O)[C@H](C(C)C)N(C)C(=O)[C@H](CC(C)C)N(C)C(=O)[C@H](CC(C)C)N(C)C(=O)[C@@H](C)NC(=O)[C@H](C)NC(=O)[C@H](CC(C)C)N(C)C(=O)[C@H](C(C)C)NC(=O)[C@H](CC(C)C)N(C)C(=O)CN(C)C1=O` [Compound 32], the IC50 is greater than 10 µM on calcineurin, 0.0249 µM in series [2] and greater than 10 µM with NFAT.

With `CC[C@@H]1NC(=O)[C@H]([C@H](O)[C@H](C)Cc2nc3cc(S(N)(=O)=O)ccc3[nH]2)N(C)C(=O)[C@H](C(C)C)N(C)C(=O)[C@H](CC(C)C)N(C)C(=O)[C@H](CC(C)C)N(C)C(=O)[C@@H](C)NC(=O)[C@H](C)NC(=O)[C@H](CC(C)C)N(C)C(=O)[C@H](C(C)C)NC(=O)[C@H](CC(C)C)N(C)C(=O)CN(C)C1=O` [Compound 34], the figures for the IC50 (at calcineurin; in series [2]; in the series with NFAT) were 6.4 µM, 0.0164 µM and greater than 10 µM, respectively. The “Cell permeability” value in series [1] is recorded as 19.9 % flux. Further, in the series “in vitro”, the Papp A→B at 2 h, 5 μM is less than 0.6 ×10⁻⁶ cm/s. Also, the Papp B→A at 2 h, 5 μM in the series “in vitro” turned out to be 0.87 ×10⁻⁶ cm/s.

`CC[C@@H]1NC(=O)[C@H]([C@H](O)[C@H](C)Cc2nc3cc(C(=N)N)ccc3[nH]2)N(C)C(=O)[C@H](C(C)C)N(C)C(=O)[C@H](CC(C)C)N(C)C(=O)[C@H](CC(C)C)N(C)C(=O)[C@@H](C)NC(=O)[C@H](C)NC(=O)[C@H](CC(C)C)N(C)C(=O)[C@H](C(C)C)NC(=O)[C@H](CC(C)C)N(C)C(=O)CN(C)C1=O` [Compound 35]: the IC50 is 4.8 µM at calcineurin, 0.012 µM in series [2] and greater than 10 µM in the series on NFAT. The “Cell permeability” value in series [1] amounted to 4 % flux. For the same molecule, in the series “in vitro”, the Papp A→B at 2 h, 5 μM was less than 0.35 ×10⁻⁶ cm/s. In the series “in vitro”, this molecule returned a Papp B→A at 2 h, 5 μM of less than 0.46 ×10⁻⁶ cm/s.

On to `CC[C@@H]1NC(=O)[C@H]([C@H](O)[C@H](C)Cc2nc3cc(-c4ccc(N)c(N)c4)ccc3[nH]2)N(C)C(=O)[C@H](C(C)C)N(C)C(=O)[C@H](CC(C)C)N(C)C(=O)[C@H](CC(C)C)N(C)C(=O)[C@@H](C)NC(=O)[C@H](C)NC(=O)[C@H](CC(C)C)N(C)C(=O)[C@H](C(C)C)NC(=O)[C@H](CC(C)C)N(C)C(=O)CN(C)C1=O` [Compound 39], for which the IC50 is greater than 10 µM at calcineurin, 0.0061 µM in series [2] and 10 µM in the series with NFAT.

Regarding `CC[C@@H]1NC(=O)[C@H]([C@H](O)[C@H](C)Cc2nc3cc(F)cc(C(=O)O)c3[nH]2)N(C)C(=O)[C@H](C(C)C)N(C)C(=O)[C@H](CC(C)C)N(C)C(=O)[C@H](CC(C)C)N(C)C(=O)[C@@H](C)NC(=O)[C@H](C)NC(=O)[C@H](CC(C)C)N(C)C(=O)[C@H](C(C)C)NC(=O)[C@H](CC(C)C)N(C)C(=O)CN(C)C1=O` [Compound 21], the figures for the IC50 (on calcineurin; in series [2]; in the series with NFAT) were greater than 10 µM, 0.0222 µM and 5.3 µM, respectively.

With `CC[C@@H]1NC(=O)[C@H]([C@H](O)[C@H](C)Cc2nc3cc(C(=O)O)c(C(=O)O)cc3[nH]2)N(C)C(=O)[C@H](C(C)C)N(C)C(=O)[C@H](CC(C)C)N(C)C(=O)[C@H](CC(C)C)N(C)C(=O)[C@@H](C)NC(=O)[C@H](C)NC(=O)[C@H](CC(C)C)N(C)C(=O)[C@H](C(C)C)NC(=O)[C@H](CC(C)C)N(C)C(=O)CN(C)C1=O` [Compound 31], the “Cell permeability” value in series [1] is 0.2 % flux. Moreover, the IC50 in series [2] was 0.0399 µM. Moreover, the IC50 in the series with NFAT is greater than 10 µM. For the same molecule, in “in vitro”, the Papp A→B at 2 h, 5 μM is less than 0.15 ×10⁻⁶ cm/s and the Papp B→A at 2 h, 5 μM is less than 0.18 ×10⁻⁶ cm/s.

As to `CC[C@@H]1NC(=O)[C@H]([C@H](O)[C@H](C)Cc2nc3cc(N)c(N)cc3[nH]2)N(C)C(=O)[C@H](C(C)C)N(C)C(=O)[C@H](CC(C)C)N(C)C(=O)[C@H](CC(C)C)N(C)C(=O)[C@@H](C)NC(=O)[C@H](C)NC(=O)[C@H](CC(C)C)N(C)C(=O)[C@H](C(C)C)NC(=O)[C@H](CC(C)C)N(C)C(=O)CN(C)C1=O` [Compound 40], the IC50 is 8 µM on calcineurin, 0.0055 µM in series [2] and greater than 10 µM with NFAT.

Consider `CC[C@@H]1NC(=O)[C@H]([C@H](O)[C@H](C)Cc2nc3ccc(C(=O)O)cc3n2C)N(C)C(=O)[C@H](C(C)C)N(C)C(=O)[C@H](CC(C)C)N(C)C(=O)[C@H](CC(C)C)N(C)C(=O)[C@@H](C)NC(=O)[C@H](C)NC(=O)[C@H](CC(C)C)N(C)C(=O)[C@H](C(C)C)NC(=O)[C@H](CC(C)C)N(C)C(=O)CN(C)C1=O` [Compound 37], for which, in series [1], the “Cell permeability” value was found to be 2 % flux. Besides, the IC50 with NFAT is greater than 10 µM. Besides, the Papp A→B at 2 h, 5 μM in “in vitro” was 0.1 ×10⁻⁶ cm/s.
